Drawing on patent publication US6867320B2, “Substituted phenylalkanoic acid derivatives and use thereof” (Asahi Kasei Pharma Corporation, priority 2002, dated 2005), this text covers inhibition for 36 molecules.

Some results are limits rather than exact numbers.

The test system of the experiment is PGE2 production from IL-1β-stimulated MG-63 cells. The experiment can be described thus: Suppressing action on PGE2 production from IL-1β-stimulated MG-63 cells. As to conditions: Homo sapiens, IL-1β 1 ng/ml, 18 hours, read-out: PGE2 production suppression ratio. The class given is cell-based. An excerpt: 1. Suppressing Action on PGE2 Production from IL-1β-Stimulated MG-63 Cells (1) Method for Measurement
An action of suppressing PGE2 production caused by interleukin (IL) 1β as an inflammatory stimulant was studied by the following method. Cells of MG-63, which is a human osteosarcoma cell line (purchased from Dainippon Pharmaceutical), were suspended in EMEM medium (GIBCO) containing 10% fetal bovine serum (BioFluid), and then inoculated to each well of 96-well culture plate at a density of 2×10^4 cells/well and cultured overnight. The medium was changed to EMEM medium containing 0.5% fetal bovine serum, and then a test compound was added with each well. Human interleukin-1β (ENDOGEN) was further added as an inflammatory stimulant at a final concentration of 1 ng/ml. The cells were further cultured for 18 hours. The culture supernatant was collected, and the PGE2 concentration in the culture supernatant was measured by using EIA kit (CAYMAN). By using a well which was not added with the stimulant as a negative control and a well which was added only with the stimulant as a positive control, suppression ratios on PGE2 production were calculated from produced amounts of PGE2 in the well added with the test compound using the following equation. PGE2 production suppression ratio=[1−(C−B)/(A−B)]×100 • A: PGE2 production amount of positive control • B: PGE2 production amount of negative control • C: PGE2 production amount in well added with test compound
Regarding `O=C(O)CCc1ccc(OCC2CCCC2)c(-c2ccc3ccc(O)cc3c2)c1` [Compound 008, 3-[4-cyclopentylmethyloxy-3-(7-hydroxynaphthalen-2-yl)-phenyl]propionic acid], the inhibition at 0.4 µM was not below 50%.

As for `CN(C)c1ccc2cc(-c3cc(CCC(=O)O)ccc3OCC3CCCC3)ccc2c1` [Compound 018, 3-{4-cyclopentylmethyloxy-3-[6-(N,N-dimethylamino)naphthalen-2-yl]phenyl}propionic acid], the inhibition at 0.4 µM is not below 50%.

In the case of `NS(=O)(=O)Nc1ccc2cc(-c3cc(CCC(=O)O)ccc3OCC3CCCC3)ccc2c1` [Compound 020, 3-[4-cyclopentylmethyloxy-3-(6-sulfamoylaminonaphthalen-2-yl)phenyl]propionic acid], the inhibition at 0.4 µM was not below 50%.

In the case of `CS(=O)(=O)c1ccc2cc(-c3cc(CCC(=O)O)ccc3OCC3CCCC3)ccc2c1` [Compound 022, 3-[4-cyclopentylmethyloxy-3-(6-methanesulfonylnaphthalen-2-yl)phenyl]propionic acid], the inhibition at 0.4 µM was not below 50%.

`NS(=O)(=O)c1ccc2cc(-c3cc(CCC(=O)O)ccc3OCC3CCCC3)ccc2c1` [Compound 024, 3-[4-cyclopentylmethyloxy-3-(6-sulfamoylnaphthalen-2-yl)phenyl]propionic acid]: the inhibition at 0.4 µM was not below 50%.

As to `CNS(=O)(=O)c1ccc2cc(-c3cc(CCC(=O)O)ccc3OCC3CCCC3)ccc2c1` [Compound 026, 3-{4-cyclopentylmethyloxy-3-[6-(N-methylsulfamoyl)naphthalen-2-yl]phenyl}propionic acid], the inhibition at 0.4 µM was not below 50%.

For the molecule `CN(C)S(=O)(=O)c1ccc2cc(-c3cc(CCC(=O)O)ccc3OCC3CCCC3)ccc2c1` [Compound 028, 3-{4-cyclopentylmethyloxy-3-[6-(N,N-dimethylsulfamoyl)naphthalen-2-yl]phenyl}propionic acid], the inhibition at 0.4 µM is not below 50%.

On to `O=C(O)CCc1ccc(OCC2CCCCC2)c(-c2ccc3cc(C(=O)O)ccc3c2)c1` [Compound 029, 3-[3-(6-carboxynaphthalen-2-yl)-4-cyclohexylmethyloxyphenyl]propionic acid], for which the inhibition at 0.4 µM is not below 50%.

As to `CCCCOc1ccc(CCC(=O)O)cc1-c1ccc2ccccc2c1` [Compound 037, 3-[4-butyloxy-3-(naphthalen-2-yl)phenyl]propionic acid], the inhibition at 0.4 µM was not below 50%.

Take `CC(C)Oc1ccc(CCC(=O)O)cc1-c1ccc2ccccc2c1` [Compound 041, 3-[4-isopropyloxy-3-(naphthalen-2-yl)phenyl]propionic acid]: the inhibition at 0.4 µM was not below 50%.

With `O=C(O)CCc1ccc(OCCC2CCCCC2)c(-c2ccc3ccccc3c2)c1` [Compound 049, 3-[4-(2-cyclohexylethyloxy)-3-(naphthalen-2-yl)phenyl]propionic acid], the inhibition at 0.4 µM is not below 50%.

On to `O=C(O)CCc1ccc(OCc2ccco2)c(-c2ccc3ccccc3c2)c1` [Compound 058, 3-{4-[(furan-2-yl)methyloxy]-3-(naphthalen-2-yl)phenyl}propionic acid], for which the inhibition at 0.4 µM is not below 50%.

As for `O=C(O)CCc1ccc(OCc2cccnc2)c(-c2ccc3ccccc3c2)c1` [Compound 060, 3-{3-(naphthalen-2-yl)-4-[(pyridin-3-yl)methyloxy]phenyl}propionic acid], the inhibition at 0.4 µM is not below 50%.

As to `CCc1ccc(CCOc2ccc(CCC(=O)O)cc2-c2ccc3ccccc3c2)nc1` [Compound 062, 3-{4-[2-(5-ethylpyridin-2-yl)ethyloxy]-3-(naphthalen-2-yl)phenyl}propionic acid], the inhibition at 0.4 µM was not below 50%.

Take `Cc1oc(-c2ccccc2)nc1CCOc1ccc(CCC(=O)O)cc1-c1ccc2ccccc2c1` [Compound 064, 3-{4-[2-(5-methyl-2-phenyloxazol-4-yl)ethyloxy]-3-(naphthalen-2-yl)phenyl}propionic acid]: the inhibition at 0.4 µM is not below 50%.

For the molecule `COc1ccc2cc(-c3cc(CCC(=O)O)ccc3OCC3CCCCC3)ccc2c1` [Compound 068, 3-[4-cyclohexylmethyloxy-3-(6-methoxynaphthalen-2-yl)phenyl]propionic acid], the inhibition at 0.4 µM was not below 50%.

On to `O=C(O)CCc1ccc(OCC2CCCCC2)c(-c2cccc3ccccc23)c1` [Compound 070, 3-[4-cyclohexylmethyloxy-3-(naphthalen-1-yl)phenyl]propionic acid], for which the inhibition at 0.4 µM was not below 50%.

Consider `O=C(O)CCc1ccc(OCC2CCCCC2)c(-c2ccc3cc(OCCO)ccc3c2)c1` [Compound 071, 3-{4-cyclohexylmethyloxy-3-[6-(2-hydroxyethyloxy)naphthalen-2-yl]phenyl}propionic acid], for which the inhibition at 0.4 µM is not below 50%.

Take `O=C(O)CCc1ccc(OCC2CCCCC2)c(-c2ccc3cc(OCC(=O)O)ccc3c2)c1` [Compound 072, 3-[3-(6-carboxymethyloxynaphthalen-2-yl)-4-cyclohexylmethyloxyphenyl]propionic acid]: the inhibition at 0.4 µM is not below 50%.

With `CN(C)C(=O)COc1ccc2cc(-c3cc(CCC(=O)O)ccc3OCC3CCCCC3)ccc2c1` [Compound 074, 3-{4-cyclohexylmethyloxy-3-[6-(N,N-dimethylcarbamoylmethyloxy)-naphthalen-2-yl]phenyl}propionic acid], the inhibition at 0.4 µM was not below 50%.

Consider `CC(=O)Nc1ccc2cc(-c3cc(CCC(=O)O)ccc3OCC3CCCC3)ccc2c1` [Compound 077, 3-[3-(6-acetylaminonaphthalen-2-yl)-4-cyclopentylmethyloxy-phenyl]propionic acid], for which the inhibition at 0.4 µM is not below 50%.

With `CS(=O)(=O)Nc1ccc2cc(-c3cc(CCC(=O)O)ccc3OCC3CCCC3)ccc2c1` [Compound 085, 3-[4-cyclopentylmethyloxy-3-(6-methanesulfonylaminonaphthalen-2-yl)phenyl]propionic acid], the inhibition at 0.4 µM is not below 50%.

On to `O=C(O)CCc1ccc(OCC2CCCC2)c(-c2ccc3ccc(NC(=O)c4ccco4)cc3c2)c1` [Compound 090, 3-(4-cyclopentylmethyloxy-3-{7-[(furan-2-carbonyl)amino]naphthalen-2-yl}phenyl)propionic acid], for which the inhibition at 0.4 µM is not below 50%.

Turning to `O=C(O)CCc1cc(Cl)c(OCC2CCCC2)c(-c2ccc3ccccc3c2)c1` [Compound 092, 3-[3-chloro-4-cyclopentylmethyloxy-5-(naphthalen-2-yl)phenyl]propionic acid], the inhibition at 0.4 µM was not below 50%.

Take `COC(=O)CCc1cc(N)c(OCC2CCCC2)c(-c2ccc3ccccc3c2)c1` [Compound 094, methyl 3-[3-amino-4-cyclopentylmethyloxy-5-(naphthalen-2-yl)phenyl]propionate]: the inhibition at 0.4 µM was not below 50%.

In the case of `O=C(O)Cc1ccc(OCC2CCCCC2)c(-c2ccc3ccccc3c2)c1` [Compound 096, 4-cyclohexylmethyloxy-3-(naphthalen-2-yl)phenylacetic acid], the inhibition at 0.4 µM is not below 50%.

As for `Cc1c[nH]c2ccc(-c3cc(CCC(=O)O)ccc3OCC3CCCC3)cc12` [Compound 112, 3-[4-cyclopentylmethyloxy-3-(3-methyl-1H-indol-5-yl)phenyl]propionic acid], the inhibition at 0.4 µM is not below 50%.

Take `O=C(O)CCc1ccc(OC2CCCC2)c(-c2cccc3[nH]ccc23)c1` [Compound 118, 3-[4-cyclopentyloxy-3-(1H-indol-4-yl)phenyl]propionic acid]: the inhibition at 0.4 µM was not below 50%.

On to `O=C(O)CCc1ccc(OC2CCCCC2)c(-c2cccc3[nH]ccc23)c1` [Compound 120, 3-[4-cyclohexyloxy-3-(1H-indol-4-yl)phenyl]propionic acid], for which the inhibition at 0.4 µM was not below 50%.

Take `Cn1ccc2c(-c3cc(CCC(=O)O)ccc3OCC3CCCC3)cccc21` [Compound 122, 3-[4-cyclopentylmethyloxy-3-(1-methyl-1H-indol-4-yl)phenyl]propionic acid]: the inhibition at 0.4 µM is not below 50%.

As to `Cn1ccc2c(-c3cc(CCC(=O)O)ccc3OC3CCCC3)cccc21` [Compound 124, 3-[4-cyclopentyloxy-3-(1-methyl-1H-indol-4-yl)phenyl]propionic acid], the inhibition at 0.4 µM is not below 50%.

Take `O=C(O)CCc1ccc(OCC2CCCCC2)c(-c2ccc3cc[nH]c3c2)c1` [Compound 128, 3-[4-cyclohexylmethyloxy-3-(1H-indol-6-yl)phenyl]propionic acid]: the inhibition at 0.4 µM is not below 50%.

For the molecule `CCCCOc1ccc(CCC(=O)O)cc1-c1ccc2[nH]ccc2c1` [Compound 130, 3-[4-butyloxy-3-(1H-indol-5-yl)phenyl]propionic acid], the inhibition at 0.4 µM was not below 50%.

In the case of `Cc1ccccc1COc1ccc(CCC(=O)O)cc1-c1ccc2[nH]ccc2c1` [Compound 134, 3-[3-(1H-indol-5-yl)-4-(2-methylphenylmethyloxy)phenyl]propionic acid], the inhibition at 0.4 µM is not below 50%.

Regarding `Cc1cccc(COc2ccc(CCC(=O)O)cc2-c2ccc3[nH]ccc3c2)c1` [Compound 136, 3-[3-(1H-indol-5-yl)-4-(3-methylphenylmethyloxy)phenyl]propionic acid], the inhibition at 0.4 µM is not below 50%.

For `Cc1ccc(COc2ccc(CCC(=O)O)cc2-c2ccc3[nH]ccc3c2)cc1` [Compound 138, 3-[3-(1H-indol-5-yl)-4-(4-methylphenylmethyloxy)phenyl]propionic acid], the inhibition at 0.4 µM was not below 50%.
